This passage reports IC50 results from US11649255B2, “Indazoles as hematopoietic progenitor kinase 1 (HPK1) inhibitors and methods using same” (1st Biotherapeutics, Inc., priority 2020, dated 2023).

Sequence of recombinant human HPK1 (Q92918 whole entry): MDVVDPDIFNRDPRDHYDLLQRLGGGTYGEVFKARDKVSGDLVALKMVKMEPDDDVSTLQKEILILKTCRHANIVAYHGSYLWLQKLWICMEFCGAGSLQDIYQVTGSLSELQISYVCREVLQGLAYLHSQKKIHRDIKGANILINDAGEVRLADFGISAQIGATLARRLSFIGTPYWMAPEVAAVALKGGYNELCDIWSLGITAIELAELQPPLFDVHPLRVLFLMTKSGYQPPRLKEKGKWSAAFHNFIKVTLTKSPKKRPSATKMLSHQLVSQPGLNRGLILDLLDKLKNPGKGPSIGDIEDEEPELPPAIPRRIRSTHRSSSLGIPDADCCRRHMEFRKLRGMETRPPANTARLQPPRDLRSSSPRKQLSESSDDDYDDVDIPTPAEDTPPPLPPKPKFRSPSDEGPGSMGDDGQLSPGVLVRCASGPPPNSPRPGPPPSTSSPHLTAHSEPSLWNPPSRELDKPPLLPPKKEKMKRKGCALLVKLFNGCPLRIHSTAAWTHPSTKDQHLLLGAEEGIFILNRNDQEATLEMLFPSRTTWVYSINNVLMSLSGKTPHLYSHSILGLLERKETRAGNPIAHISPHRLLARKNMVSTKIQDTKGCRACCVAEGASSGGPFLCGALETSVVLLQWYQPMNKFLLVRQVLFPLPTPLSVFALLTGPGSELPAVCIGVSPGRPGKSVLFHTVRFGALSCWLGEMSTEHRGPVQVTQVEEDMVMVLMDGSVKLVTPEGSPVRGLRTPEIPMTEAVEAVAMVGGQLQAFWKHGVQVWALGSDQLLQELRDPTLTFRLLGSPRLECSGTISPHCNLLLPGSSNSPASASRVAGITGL

In the test the target is recombinant human HPK1 (Homo sapiens (Human), UniProt Q92918). As to the kind of experiment: HPK1 kinase assay (ADP-Glo). Format: biochemical. The note with it: 25 μM ATP, MBP substrate. The essentials:
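Activity was read as ADP formed, detected by ADP-Glo luminescence after the reaction of 5 ng recombinant human HPK1 with MBP and ATP (stocks 0.5 μg/μl and 25 μM) for 40 min at 30 °C. Buffer was Tris pH 7.5 with MgCl2, BSA and DTT, with compound in 0.5% DMSO. IC50 came from inhibition curves.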
As a reminder, the IC50 is the concentration at which inhibition is half-maximal. On to `CC(=O)c1c(F)c(C)c(-c2ccn3nc(NC(=O)[C@@H]4C[C@@H]4F)cc3c2)c2cn[nH]c12` [Example 566, (1S,2S)-N-(5-(7-acetyl-6-fluoro-5-methyl-1H-indazol-4-yl)pyrazolo[1,5-a]pyridin-2-yl)-2-fluorocyclopropane-1-carboxamide], for which the IC50 lay within 101 to 500 nM. Under `O=C(Nc1cc2cc(-c3c(Cl)c(F)c(OC(F)(F)F)c4[nH]ncc34)ccn2n1)[C@@H]1C[C@@H]1F` [Example 607, (1S,2S)-N-(5-(5-chloro-6-fluoro-7-(trifluoromethoxy)-1H-indazol-4-yl)pyrazolo[1,5-a]pyridin-2-yl)-2-fluorocyclopropane-1-carboxamide] stands less than 100 nM. As for `CSc1ccc(-c2ccn3nc(NC(=O)[C@@H]4C[C@@H]4F)cc3c2)c2cn[nH]c12` [Example 593, (1S,2S)-2-fluoro-N-(5-(7-(methylthio)-1H-indazol-4-yl)pyrazolo[1,5-a]pyridin-2-yl)cyclopropane-1-carboxamide], the IC50 is less than 100 nM. Under `O=C(Nc1nc2ccc(-c3c(Cl)c(F)c(N4CCC(O)C4)c4[nH]ncc34)cc2s1)[C@@H]1C[C@@H]1F` (stereo partly drawn) [Example 78, (1S,2S)-N-(6-(5-chloro-6-fluoro-7-(3-hydroxypyrrolidin-1-yl)-1H-indazol-4-yl)benzo[d]thiazol-2-yl)-2-fluorocyclopropane-1-carboxamide] stands 101 to 500 nM; under `CC(=O)Nc1c(F)c(Cl)c(-c2ccn3nc(NC(=O)[C@@H]4C[C@@H]4F)cc3c2)c2cn[nH]c12` [Example 537, (1S,2S)-N-(5-(7-acetamido-5-chloro-6-fluoro-1H-indazol-4-yl)pyrazolo[1,5-a]pyridin-2-yl)-2-fluorocyclopropane-1-carboxamide], less than 100 nM. Under `NC1CCC(Nc2c(F)c(Cl)c(-c3ccn4nc(NC(=O)[C@@H]5C[C@@H]5F)cc4c3)c3cn[nH]c23)CC1` (stereo partly drawn) [Example 515, (1S,2S)-N-(5-(7-((4-aminocyclohexyl)amino)-5-chloro-6-fluoro-1H-indazol-4-yl)pyrazolo[1,5-a]pyridin-2-yl)-2-fluorocyclopropane-1-carboxamide] stands less than 100 nM. `Cc1c(F)cc2[nH]nc(C3CC3)c2c1-c1ccn2nc(NC(=O)[C@@H]3C[C@@H]3F)cc2c1` [Example 473, (1S,2S)-N-(5-(3-cyclopropyl-6-fluoro-5-methyl-1H-indazol-4-yl)pyrazolo[1,5-a]pyridin-2-yl)-2-fluorocyclopropane-1-carboxamide]: the IC50 was greater than 1000 nM.

In the case of `CCc1c(F)c(N(CC)CC)c2[nH]ncc2c1-c1ccn2nc(NC(=O)[C@@H]3C[C@@H]3F)cc2c1` [Example 518, (1S,2S)-N-(5-(7-(diethylamino)-5-ethyl-6-fluoro-1H-indazol-4-yl)pyrazolo[1,5-a]pyridin-2-yl)-2-fluorocyclopropane-1-carboxamide], the IC50 is less than 100 nM. The same measure for `Cc1c(F)c(Cl)c2[nH]nc(Cl)c2c1-c1ccc2nc(NC(=O)[C@@H]3C[C@@H]3F)sc2c1` [Example 53, (1S,2S)-N-(6-(3,7-dichloro-6-fluoro-5-methyl-1H-indazol-4-yl)benzo[d]thiazol-2-yl)-2-fluorocyclopropane-1-carboxamide]: 101 to 500 nM.

Regarding `CC(C)Nc1c(F)c(Cl)c(-c2ccn3nc(NC(=O)[C@@H]4C[C@@H]4F)cc3c2)c2cn[nH]c12` [Example 619, (1S,2S)-N-(5-(5-chloro-6-fluoro-7-(isopropylamino)-1H-indazol-4-yl)pyrazolo[1,5-a]pyridin-2-yl)-2-fluorocyclopropane-1-carboxamide], the IC50 was less than 100 nM. The same measure for `Nc1ccc2[nH]ncc2c1-c1ccc2nc(NC(=O)C3CC3)cn2c1` [Example 225, N-(6-(5-amino-1H-indazol-4-yl)imidazo[1,2-a]pyridin-2-yl)cyclopropanecarboxamide]: greater than 1000 nM. The same measure for `CNc1ccc2[nH]ncc2c1-c1ccc2nc(NC(=O)C3CC3)cn2c1` [Example 229, N-(6-(5-(methylamino)-1H-indazol-4-yl)imidazo[1,2-a]pyridin-2-yl)cyclopropanecarboxamide]: less than 100 nM. Consider `CNC(=O)N(C)c1c(F)c(Cl)c(-c2ccc3nc(NC(=O)[C@@H]4C[C@@H]4F)cn3c2)c2cn[nH]c12` [Example 435, (1S,2S)-N-(6-(5-chloro-7-(1,3-dimethylureido)-6-fluoro-1H-indazol-4-yl)imidazo[1,2-a]pyridin-2-yl)-2-fluorocyclopropane-1-carboxamide], for which the IC50 was less than 100 nM. Under `CC(=S)Nc1c(F)c(Cl)c(-c2ccc3nc(NC(=O)[C@@H]4C[C@@H]4F)cn3c2)c2cn[nH]c12` [Example 411, (1S,2S)-N-(6-(5-chloro-7-ethanethioamido-6-fluoro-1H-indazol-4-yl)imidazo[1,2-a]pyridin-2-yl)-2-fluorocyclopropane-1-carboxamide] stands less than 100 nM; under `CC(=O)N(C)c1c(F)c(Cl)c(-c2ccc3nc(NC(=O)[C@@H]4C[C@@H]4F)sc3n2)c2cn[nH]c12` [Example 189, (1S,2S)-N-(5-(5-chloro-6-fluoro-7-(N-methylacetamido)-1H-indazol-4-yl)thiazolo[5,4-b]pyridin-2-yl)-2-fluorocyclopropane-1-carboxamide], less than 100 nM. In the case of `CC(NC=O)c1c(F)c(Cl)c(-c2ccn3nc(NC(=O)[C@@H]4C[C@@H]4F)cc3c2)c2cn[nH]c12` (stereo partly drawn) [Example 659, (1S,2S)-N-(5-(5-chloro-6-fluoro-7-(1-formamidoethyl)-1H-indazol-4-yl)pyrazolo[1,5-a]pyridin-2-yl)-2-fluorocyclopropane-1-carboxamide], the IC50 was less than 100 nM. The same measure for `CCOc1c(F)cc2[nH]ncc2c1-c1ccn2nc(NC(=O)[C@@H]3C[C@@H]3F)cc2c1` [Example 578, (1S,2S)-N-(5-(5-ethoxy-6-fluoro-1H-indazol-4-yl)pyrazolo[1,5-a]pyridin-2-yl)-2-fluorocyclopropane-1-carboxamide]: less than 100 nM. With `O=C(O)NCC1CN(c2c(F)c(Cl)c(-c3ccc4nc(NC(=O)[C@@H]5C[C@@H]5F)sc4c3)c3cn[nH]c23)C1` [Example 90, ((1-(5-chloro-6-fluoro-4-(2-((1S,2S)-2-fluorocyclopropane-1-carboxamido)benzo[d]thiazol-6-yl)-1H-indazol-7-yl)azetidin-3-yl)methyl)carbamic acid], the IC50 is less than 100 nM. Under `CSc1ccc(-c2ccc3nc(NC(=O)[C@@H]4C[C@@H]4F)sc3c2)c2cn[nH]c12` [Example 142, (1S,2S)-2-fluoro-N-(6-(7-(methylthio)-1H-indazol-4-yl)benzo[d]thiazol-2-yl)cyclopropane-1-carboxamide] stands greater than 1000 nM; under `Cc1c(F)c(F)c2[nH]ncc2c1-c1ccc2nc(NC(=O)[C@@H]3C[C@@H]3F)sc2c1` [Example 109, (1S,2S)-N-(6-(6,7-difluoro-5-methyl-1H-indazol-4-yl)benzo[d]thiazol-2-yl)-2-fluorocyclopropane-1-carboxamide], less than 100 nM. Under `CNc1c(F)c(Cl)c(-c2ccc3nc(NC(=O)[C@@H]4C[C@@H]4F)cn3c2)c2cn[nH]c12` [Example 265, (1S,2S)-N-(6-(5-chloro-6-fluoro-7-(methylamino)-1H-indazol-4-yl)imidazo[1,2-a]pyridin-2-yl)-2-fluorocyclopropane-1-carboxamide] stands less than 100 nM; under `C[S+]([O-])c1c(F)c(Cl)c(-c2ccc3nc(NC(=O)[C@@H]4C[C@@H]4F)sc3n2)c2cn[nH]c12` (stereo partly drawn) [Example 180, (1S,2S)-N-(5-(5-chloro-6-fluoro-7-(methylsulfinyl)-1H-indazol-4-yl)thiazolo[5,4-b]pyridin-2-yl)-2-fluorocyclopropane-1-carboxamide], 101 to 500 nM. The same measure for `O=C(Nc1nc2ccc(-c3c(Cl)ccc4[nH]ncc34)cc2s1)C1CC1` [Example 16, N-(6-(5-chloro-1H-indazol-4-yl)benzo[d]thiazol-2-yl)cyclopropanecarboxamide]: 101 to 500 nM; for `CNc1c(F)c(Cl)c(-c2ccn3nc(NC(=O)[C@@H]4C[C@@H]4F)cc3c2)c2cn[nH]c12` [Example 494, (1S,2S)-N-(5-(5-chloro-6-fluoro-7-(methylamino)-1H-indazol-4-yl)pyrazolo[1,5-a]pyridin-2-yl)-2-fluorocyclopropane-1-carboxamide]: less than 100 nM; for `O=C(Nc1cn2cc(-c3c(C(F)(F)F)ccc4[nH]ncc34)ccc2n1)[C@@H]1C[C@@H]1F` [Example 236, (1S,2S)-2-fluoro-N-(6-(5-(trifluoromethyl)-1H-indazol-4-yl)imidazo[1,2-a]pyridin-2-yl)cyclopropane-1-carboxamide]: less than 100 nM. Regarding `CN(C)c1c(F)c(C(F)(F)F)c(-c2ccc3nc(NC(=O)[C@@H]4C[C@@H]4F)sc3c2)c2cn[nH]c12` [Example 130, (1S,2S)-N-(6-(7-(dimethylamino)-6-fluoro-5-(trifluoromethyl)-1H-indazol-4-yl)benzo[d]thiazol-2-yl)-2-fluorocyclopropane-1-carboxamide], the IC50 was less than 100 nM.

As for `CN(C)C(=O)CNc1c(F)c(Cl)c(-c2ccc3nc(NC(=O)[C@@H]4C[C@@H]4F)cn3c2)c2cn[nH]c12` [Example 397, (1S,2S)-N-(6-(5-chloro-7-((2-(dimethylamino)-2-oxoethyl)amino)-6-fluoro-1H-indazol-4-yl)imidazo[1,2-a]pyridin-2-yl)-2-fluorocyclopropane-1-carboxamide], the IC50 is less than 100 nM. The same measure for `COC(=O)c1c(F)c(Cl)c(-c2ccc3nc(NC(=O)[C@@H]4C[C@@H]4F)cn3c2)c2cn[nH]c12` [Example 315, methyl 5-chloro-6-fluoro-4-(2-((1S,2S)-2-fluorocyclopropane-1-carboxamido)imidazo[1,2-a]pyridin-6-yl)-1H-indazole-7-carboxylate]: less than 100 nM; for `Cc1c(F)c(S(C)(=O)=O)c2[nH]ncc2c1-c1ccc2nc(NC(=O)[C@@H]3C[C@@H]3F)cn2c1` [Example 270, (1S,2S)-2-fluoro-N-(6-(6-fluoro-5-methyl-7-(methylsulfonyl)-1H-indazol-4-yl)imidazo[1,2-a]pyridin-2-yl)cyclopropane-1-carboxamide]: 101 to 500 nM.
